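Compound exposure: 48 hours, 5 concentrations, 96-well plates. GI50 = concentration required for 50% inhibition of growth.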 Active and inactive are the calls of the source. Cut-off read from the data, not from the text of the source: active = GI50 up to about 1.1 µM and inactive = higher.
Columns and labels:
Experiment in all cases: DTP human tumour cell line panel, 48 h
SF-295 = system: SF-295
UACC-62 = system: UACC-62
HL-60 = system: HL-60
SF-268 = system: SF-268
NCI-H522 = system: NCI-H522
U-251 = system: U-251
IGROV-1 = system: IGROV-1
NCI-H23 = system: NCI-H23
SK-MEL-28 = system: SK-MEL-28
OVCAR-4 = system: OVCAR-4
SK-MEL-2 = system: SK-MEL-2
SNB-19 = system: SNB-19
ACHN = system: ACHN
OVCAR-8 = system: OVCAR-8
SNB-75 = system: SNB-75

Row | Structure (SMILES) | GI50 (SF-295) | GI50 (UACC-62) | GI50 (HL-60) | GI50 (SF-268) | GI50 (NCI-H522) | GI50 (U-251) | GI50 (IGROV-1) | GI50 (NCI-H23) | GI50 (SK-MEL-28) | GI50 (OVCAR-4) | GI50 (SK-MEL-2) | GI50 (SNB-19) | GI50 (ACHN) | GI50 (OVCAR-8) | GI50 (SNB-75)
1 | CC1=CC(C)(C)N=C2SC(c3ccc(Cl)cc3)=NN12 | 31.2 µM (inactive) | 59.6 µM (inactive) | 12.2 µM (inactive) | 27.5 µM (inactive) | 15.6 µM (inactive) | 23 µM (inactive) | > 100 µM (inactive) | 15.5 µM (inactive) | 36.4 µM (inactive) | 26.2 µM (inactive) | 43.6 µM (inactive) | 50.1 µM (inactive) | 27.9 µM (inactive) | – | –
2 | COC(=O)C1CCC2(CC1)NC(=O)NC2=O (configuration not stated) | > 100 µM (inactive) | > 100 µM (inactive) | > 100 µM (inactive) | > 100 µM (inactive) | > 100 µM (inactive) | > 100 µM (inactive) | > 100 µM (inactive) | > 100 µM (inactive) | > 100 µM (inactive) | > 100 µM (inactive) | > 100 µM (inactive) | > 100 µM (inactive) | > 100 µM (inactive) | > 100 µM (inactive) | > 100 µM (inactive)
3 | CC1(C)OCC(C(O)C2OC(C)(C)OC2/C=N\O)O1 (configuration not stated) | > 100 µM (inactive) | – | > 100 µM (inactive) | > 100 µM (inactive) | > 100 µM (inactive) | > 100 µM (inactive) | > 100 µM (inactive) | > 100 µM (inactive) | > 100 µM (inactive) | – | > 100 µM (inactive) | > 100 µM (inactive) | > 100 µM (inactive) | > 100 µM (inactive) | > 100 µM (inactive)
4 | CCCCCCCCSC(SCCCCCCCC)=C1C(=O)N(c2ccccc2)N=C1C | 36.9 µM (inactive) | 24.5 µM (inactive) | 19.2 µM (inactive) | > 100 µM (inactive) | 20.3 µM (inactive) | 17.5 µM (inactive) | 43.1 µM (inactive) | 32.8 µM (inactive) | > 100 µM (inactive) | – | 58.6 µM (inactive) | 30.3 µM (inactive) | 35.2 µM (inactive) | 35.5 µM (inactive) | 41.8 µM (inactive)
5 | O=C(c1ccc2c3c(ccc(C(=O)C(F)(F)F)c13)CC2)C(F)(F)F | 44.6 µM (inactive) | 79.3 µM (inactive) | – | 51.3 µM (inactive) | 29.8 µM (inactive) | 63.2 µM (inactive) | 74 µM (inactive) | 43.3 µM (inactive) | 62.2 µM (inactive) | 35.1 µM (inactive) | 97.5 µM (inactive) | 86.7 µM (inactive) | 58.9 µM (inactive) | 47.5 µM (inactive) | 29.4 µM (inactive)
6 | CC1(C)C2C=CC1C(=O)CC2 (configuration not stated) | > 100 µM (inactive) | – | > 100 µM (inactive) | > 100 µM (inactive) | > 100 µM (inactive) | > 100 µM (inactive) | – | > 100 µM (inactive) | > 100 µM (inactive) | > 100 µM (inactive) | > 100 µM (inactive) | 15.9 µM (inactive) | > 100 µM (inactive) | > 100 µM (inactive) | > 100 µM (inactive)
7 | COC(=O)C(C(=O)C(=O)Nc1c(Cl)cc([N+](=O)[O-])cc1Cl)c1csc(-n2nc(C3=CCCCC3)cc2-c2ccccc2)n1 (configuration not stated) | 43.8 µM (inactive) | 65.8 µM (inactive) | 40 µM (inactive) | 71.8 µM (inactive) | 45.2 µM (inactive) | > 100 µM (inactive) | – | – | – | > 100 µM (inactive) | > 100 µM (inactive) | 37.3 µM (inactive) | 35.5 µM (inactive) | 61.7 µM (inactive) | 30.7 µM (inactive)
8 | COC(=O)/C(=C1\OC(=O)C(c2ccc(Cl)cc2)=C1O)c1ccc(Cl)cc1 | 19.2 µM (inactive) | 17.9 µM (inactive) | 7.6 µM (inactive) | 22.3 µM (inactive) | 17.2 µM (inactive) | 24.3 µM (inactive) | 52 µM (inactive) | 16 µM (inactive) | 31 µM (inactive) | 9.71 µM (inactive) | – | 27.7 µM (inactive) | 23.2 µM (inactive) | 31.7 µM (inactive) | 22.8 µM (inactive)
9 | CCOC(=O)CNc1nnnn1C1OC(CO)C(O)C1O (configuration not stated) | > 100 µM (inactive) | > 100 µM (inactive) | – | > 100 µM (inactive) | > 100 µM (inactive) | > 100 µM (inactive) | > 100 µM (inactive) | – | – | – | > 100 µM (inactive) | – | > 100 µM (inactive) | > 100 µM (inactive) | > 100 µM (inactive)
10 | CN(C)CCN(C)C(=O)c1cccc2cccc(C(=O)O)c12 | > 100 µM (inactive) | > 100 µM (inactive) | > 100 µM (inactive) | > 100 µM (inactive) | – | > 100 µM (inactive) | > 100 µM (inactive) | > 100 µM (inactive) | > 100 µM (inactive) | > 100 µM (inactive) | 0.723 µM (active) | > 100 µM (inactive) | > 100 µM (inactive) | > 100 µM (inactive) | > 100 µM (inactive)

Source: ChEMBL document CHEMBL1201862, “PubChem BioAssay data set” (2004)
